Columns and labels:
[1] = Final pH of treated solution; type: physicochemical; details: 0.2 grams of reagent; water 4.36
From the text: The basicity of certain reagents was examined in terms of the reagents' relative ability to recover iodine. […] The amount of each reagent was 0.2 grams.

[2] = cited from earlier work

SMILES	Final pH of Treated Solution [1]	Water Solubility [2] [g/100 cc]
[Ca+2].[OH-].[OH-] [Ca(OH)2, calcium hydroxide]	12.23	–
[O]=[Ca] [CaO, calcium oxide]	12.34	0.131
[Mg+2].[OH-].[OH-] [Mg(OH)2, magnesium hydroxide]	8.86	–

Second part, led by results:

Final pH of Treated Solution [1]	SMILES	Water Solubility [2] [g/100 cc]
7.96	O=C(O)O [MgCO3, magnesium carbonate]	–
7.12	O=C(O)O [CaCO3, Calcium carbonate]	–
7.33	[O]=[Mg] [MgO, magnesium oxide]	0.001
